Consider 2 compounds from patent US10105400B2, “Composition of chicken liver hydrolysates and method for improving alcohol metabolism, as well as preventing and treating liver fibrosis” (NATIONAL TAIWAN UNIVERSITY, priority 2016, dated 2018).

Marks after values point to notes of the source that are not given here.

The test system of experiment [1] is collagen. As to the kind of experiment: Collagen deposition in livers (Sirius red stain, collagen kit), TAA model. It counts as in vivo, Wistar rats. The protocol:
(§1) Forty male Wistar rats of 5-week old were purchased from BioLASCO Taiwan Co., Ltd. (Taipei, Taiwan). Two rats were housed in one cage in an animal room at 22±2° C. with a 12/12 h light-dark cycle. After one week of acclimation, the mice were randomly divided into 5 groups:
(§2) (b) The thioacetamide group (The TAA group): intraperitoneal injection of 100 mg TAA/kg-body weight (bw) in 0.3 mL ddH2O and administration of 0.5 mL ddH2O by oral gavage;
(c) The composition of the chicken liver hydrolysates with low dosage (The CLH-L group): intraperitoneal injection of 100 mg TAA/kg-bw in 0.3 mL ddH2O and administration of 200 mg/kg-bw CLH in 0.5 mL ddH2O by oral gavage; […]
(§3) The experiment was conducted by a complete randomized design. The raw data was expressed as “mean±SEM”. The data was analyzed by analysis of variance (ANOVA) and Fisher's Least Significant Different (LSD) test was used to distinguish significant differences among groups. […]
Sirius red dye can bind to the helical structure of the collagen, and thus the Sirius red stain assay can be used to examine the deposition of collagen in livers. Furthermore, liver collagen levels of the mice are also determined by using commercial kits (Chondres Inc., Redmond, Wash., USA). […] The collagen content in the sample is calculated by using a standard curve plotted by bovine Type I collagen and expressed as μg/mg-protein. […]

Experiment [2] is described as follows: Body weight and feed efficiency, thioacetamide (TAA) liver fibrosis model. The class given is in vivo, Wistar rats. The settings on record: CNS group: 200 mg/kg-bw carnosine oral gavage daily, 10 weeks, TAA 100 mg/kg-bw i.p. The protocol:
as §1
(a) The control group (The CON group): intraperitoneal injection of 0.3 mL normal saline, and administration of 0.5 mL ddH2O by oral gavage;
as §2
(§4) (c) The composition of the chicken liver hydrolysates with low dosage (The CLH-L group): intraperitoneal injection of 100 mg TAA/kg-bw in 0.3 mL ddH2O and administration of 200 mg/kg-bw CLH in 0.5 mL ddH2O by oral gavage;
(§5) (d) The composition of the chicken liver hydrolysates with high dosage (The CLH-H group): intraperitoneal injection of 100 mg TAA/kg-bw in 0.3 mL ddH2O and administration of 600 mg/kg-bw CLH in 0.5 mL ddH2O by oral gavage; and (e) The carnosine group (The CNS group): intraperitoneal injection of 100 mg TAA/kg-bw in 0.3 mL ddH2O and administration of 200 mg/kg-bw carnosine in 0.5 mL ddH2O by oral gavage;
(§6) The experiment lasted for 10 weeks. The rats were injected with ddH2O or TAA intraperitoneally once a week and administered of ddH2O, the composition of the chicken liver hydrolysates or carnosine every day. One kilogram of the chow diet comprises 487 g carbohydrate, 239 g protein, 50 g fat, 51 g fibre and 70 g ash (Laboratory Rodent Diet 5001, PMI Nutrition International/Purina Mills LLC, Richmond, Ind., USA). All rats were fasted overnight before euthanized at the last day of experiment, the organs and the tissues were collected and weighted, and stored at −80° C. for further analysis.
as §3

Experiment [3] in a line: Relative sizes of organs and tissues, TAA liver fibrosis model. It counts as in vivo, Wistar rats. The protocol:
as §1, §2, §4, §5, §6
(§7) The experiment was conducted by a complete randomized design. The raw data was expressed as “mean±SEM”. The data was analyzed by analysis of variance (ANOVA) and Fisher's Least Significant Different (LSD) test was used to distinguish significant differences among groups. All statistical analysis of the data was performed by SAS9.2 software (SAS Institute Inc, Cary, N.C., USA). If there is no significant difference between two groups, these groups werelabeled with one identical letter.

Experiment [4] relates to thioacetamide (TAA)-treated. Kind of experiment: Biochemical indexes of liver in sera, TAA liver fibrosis model. It counts as in vivo, Wistar rats. The following applies: serum; CNS group: 200 mg/kg-bw carnosine oral gavage daily, 10 weeks, TAA 100 mg/kg-bw i.p. The protocol:
as §1, §2, §4, §5, §6, §7

In experiment [5] the test system is thioacetamide (TAA)-treated mice. Described as above. The settings on record: serum; CNS group: 200 mg/kg-bw carnosine oral gavage daily, 10 weeks, TAA 100 mg/kg-bw i.p. The class given is in vivo, Wistar rats. The protocol: as §1, §2, §4, §5, §6, §7
Experiment [6] in a line: Body weight, food intake and relative sizes of organs and tissues of mice fed alcohol liquid diet. It counts as in vivo, C57/BL/6J (B6) mice. The settings on record: SLM group: 150 mg/kg-bw silymarin oral gavage, 8 weeks, ethanol diet. The protocol: Forty eight male C57/BL/6J (B6) mice of 8-week old were purchased from the Laboratory Animal Center of National Taiwan University. The body weight of these B6 mice were approximately 19 g to 21 g. Two mice were housed in one cage in an animal room at 22±2° C. with a 12/12 hr light-dark cycle. After one week of acclimation, the mice were randomly divided into 6 groups:
(a) The control group (the CON group): administered with the control liquid diet and 0.2 mL ddH2O by oral gavage.
(b) The ethanol group (the EtOH group): administered with the Lieber-DeCarli regular ethanol diet and 0.2 mL ddH2O by oral gavage.
(c) The composition of the chicken liver hydrolysates with low dosage (The CLH-L group): administered with the Lieber-DeCarli regular ethanol diet and 80 mg/kg-body weight (bw) of the composition of the chicken liver hydrolysates in 0.2 mL ddH2O by oral gavage.
(d) The composition of the chicken liver hydrolysates with medium dossage (The CLH-M group): administered with the Lieber-DeCarli regular ethanol diet and 320 mg/kg-bw of the composition of the chicken liver hydrolysates CLH in 0.2 mL ddH2O by oral gavage.
(e) The composition of the chicken liver hydrolysates with high dosage (The CLH-H group): administered with the Lieber-DeCarli regular ethanol diet and 1280 mg/kg-bw of the composition of the chicken liver hydrolysates in 0.2 mL ddH2O by oral gavage.
(§8) (f) The silymarin group (The SLM group): administered with the Lieber-DeCarli regular ethanol diet and 150 mg/kg-bw of silymarin in 0.2 mL ddH2O by oral gavage.
The animal experiment lasted for 8 weeks; the body weight of each mouse was recorded at the beginning and the end of the experiment. The daily liquid feed (mL) intakes as a food intake of each mouse was calculated. Mice were sacrificed after 8 weeks and the blood, heart, kidney, epididymal fat tissue, and perirenal fat tissue were all collected, weighted and then stored at −80° C. for further analysis.
The experiment was conducted by a complete randomized design. The raw data was presented as “mean±standard error of the mean (SEM)”. The data was analyzed by one way-analysis of variance (ANOVA) and Fisher's Least Significant Different test to distinguish significant differences among groups. All statistical analysis of data was performed by SAS9.2 software (SAS Institute Inc, Cary, N.C., USA). If there is no significant difference between two groups, these groups were labeled with one identical letter.

Experiment [7] relates to lipid peroxidation. As to the kind of experiment: Thiobarbituric acid reactive substance (TBARS) value of sera and livers, alcohol liquid diet mice. The class given is in vivo, C57/BL/6J (B6) mice. The settings on record: SLM group: 150 mg/kg-bw silymarin oral gavage, 8 weeks, ethanol diet. The protocol:
(§9) Forty eight male C57/BL/6J (B6) mice of 8-week old were purchased from the Laboratory Animal Center of National Taiwan University. The body weight of these B6 mice were approximately 19 g to 21 g. Two mice were housed in one cage in an animal room at 22±2° C. with a 12/12 hr light-dark cycle. After one week of acclimation, the mice were randomly divided into 6 groups: […]
as §8
(§10) The animal experiment lasted for 8 weeks; the body weight of each mouse was recorded at the beginning and the end of the experiment. The daily liquid feed (mL) intakes as a food intake of each mouse was calculated. […]
(§11) The experiment was conducted by a complete randomized design. […] The data was analyzed by one way-analysis of variance (ANOVA) and Fisher's Least Significant Different test to distinguish significant differences among groups. […]
(§12) To evaluate the antioxidative ability of the composition of the chicken liver hydrolysates, the ABTS^+ free radical clearing ability is tested and represented as trolox equivalent antioxidant capacity (TEAC). The lipid peroxidation is also determined by thiobarbituric acid reactive substance (TBARS) value.

Experiment [8] deals with ABTS+ free radical. Kind of experiment: Trolox equivalent antioxidant capacity (TEAC) of sera and livers, alcohol liquid diet mice. The class given is in vivo, C57/BL/6J (B6) mice. The following applies: SLM group: 150 mg/kg-bw silymarin oral gavage, 8 weeks, ethanol diet. The protocol:
as §9, §8, §10, §11, §12

[9] abbreviates: CNS group: 200 mg/kg-bw carnosine oral gavage daily, 10 weeks, TAA 100 mg/kg-bw i.p.

On to `NCCC(=O)N[C@@H](Cc1cnc[nH]1)C(=O)O` [CNS, carnosine], for which, in experiment [1] (CNS group (carnosine 200 mg/kg-bw) compared to TAA group, FIG. 7(B)), the liver collagen content result is on record as “significantly decreased”. The “collagen deposition in livers (Sirius red stain)” value in experiment [1] (CNS group (carnosine 200 mg/kg-bw) vs TAA group, FIG. 7(A)) is on record as “remarkably decreased”. Moreover, in experiment [2], the Feed efficiency is given as 8.89 ± 0.33^b %, the Final body weight was 380.61 ± 10.47^b g and the Weight increase is listed as 163.99 ± 7.63^a g. Further, in experiment [3] (setting [9]), the “Relative size Heart” value is 0.31 ± 0.01^a g/100 g-bw, the “Relative size Kidney” value is 0.74 ± 0.01^a g/100 g-bw, the “Relative size Liver” value was 4.14 ± 0.09^a g/100 g-bw and the “Relative size Perirenal fat” value is 1.47 ± 0.11^a g/100 g-bw. The “Relative size Spleen” value in experiment [3] (setting [9]) is 0.31 ± 0.02^a g/100 g-bw. Also, the “relative sizes of liver, kidney and spleen” value in experiment [3] (carnosine 200 mg/kg-bw vs TAA group, p>0.05) was “does not decrease”. Moreover, the ALT in experiment [4] is on record as 63.88 ± 5.86^b U/L. Moreover, in experiment [5], the AST is on record as 211.00 ± 24.57^b U/L, the Blood urea nitrogen was determined as 15.4 ± 0.89 mg/dL, the Total cholesterol is 52.38 ± 3.53^a mg/dL and the Total protein was 4.26 ± 0.24^b g/dL. The Triglyceride in experiment [5] is listed as 33.25 ± 3.19^b mg/dL.

In the case of `COc1cc(C2Oc3cc([C@H]4Oc5cc(O)cc(O)c5C(=O)[C@@H]4O)ccc3OC2CO)ccc1O` (stereo partly drawn) [SLM, silymarin], in experiment [6], the “Relative size Epididymal fat tissue” value was 1.68 ± 0.15^bc g/100 g-bw, the “Relative size Heart” value is given as 0.45 ± 0.01^ab g/100 g-bw, the “Relative size Kidney” value is listed as 1.19 ± 0.04^ab g/100 g-bw and the “Relative size Liver” value is listed as 4.45 ± 0.06^a g/100 g-bw. Besides, in experiment [6], the “Relative size Perirenal fat tissue” value is reported as 0.37 ± 0.04^b g/100 g-bw and the “Relative size Spleen” value is 0.18 ± 0.01^b g/100 g-bw. In experiment [7], the “TBARS Liver” value is on record as 0.64 ± 0.12^ab nmole MDA eq./mg-protein and the “TBARS Serum” value is 52.62 ± 2.26^bc nmole MDA eq./mL. Further, in experiment [8], the “TEAC Liver” value is 294.16 ± 14.82^a nmole/mg-protein and the “TEAC Serum” value was 4.48 ± 0.18^b nmole/mL.
